Measurements: patent US20240173332A1, “BENZO[…] TREATING OR PREVENTING RESPIRATORY SYNCYTIAL VIRUS INFECTION” (Pfizer Inc., priority 2021, published 2024)
Where a name gives a salt, the structure may show the parent alone. Read-outs that look alike come from different tables or passages of the source.

Columns and labels:
[1] = test system: RSV A2; assay: RSV plaque reduction assay in Hep-G2 cells; assay type: cell-based, respiratory syncytial virus (RSV); conditions: human respiratory syncytial virus, HepG2, 48 h, mean of at least two experiments
Procedure: Compounds were subjected to RSV plaque reduction assays according to the following protocol. Plaque EC50 and cell toxicity CC50 values are a mean of at least two experiments and figures are rounded to whole units.
Hep-G2 cells (ECACC, 85011430) were passaged in flasks and seeded in 24-well plates in DMEM containing antibiotics and supplemented with 10% FBS. During inoculation and subsequent incubation, cells were cultured in DMEM containing 2% FBS. 100 plaque forming unit/well of RSV (RSV A2 ECACC, 0709161v) was mixed with eight serial dilutions of compound. Subsequently, 100 μL of the virus/compound mixtures was added to confluent Hep-G2 cell monolayers. The cells and virus/compound mixtures were incubated at 37° C. in a humidified 5% CO2 incubator for 2 h prior to removal of the inoculum and addition of 1 mL of overlay (DMEM containing 2% FBS and 0.8% CMC) containing compound dilutions. The cells and were incubated at 37° C. in a humidified 5% CO2 incubator for 2 days.
Cells were washed with PBS before adding 75/25% v/v EtOH/MeOH, for 3 min. Fixative was removed and plates were washed with PBS. A pre-titrated amount of the primary antibody was added in 200 μL PBS/2% milk powder, and plates incubated for 90 min at 37° C. The plates were washed 3 times with PBS/0.05% Tween20 before addition of rabbit anti-goat horse radish peroxidase in 200 μL PBS/2% milk powder, and incubated for 1 h at 37° C. Following three wash steps with PBS/0.05% Tween20, 200 μL ready-to-use TrueBlue was added and plates were incubated at rt for 10-15 min before washing with water. After removal of water, plates were air-dried in the dark. Plates were scanned and analysed using the Immunospot S6 Macro analyser, which is equipped with BioSpot analysis software for counting immunostained plaques (virospots). Plaque counts were used to calculate % infection relative to the mean of the plaque count in the virus control wells for RSV. The EC50 value was calculated as 50% reduction in signal, respectively, by interpolation of inhibition curves fitted with a 4-parameter nonlinear regression with a variable slope in Dotmatics. Plaque EC50 and cell toxicity CC50 values are a mean of at least two experiments and figures are rounded to whole units.

[2] = Cell cytotoxicity CC50; assay type: cell-based; conditions: human, Hep-G2 cells; mean of at least two experiments unless (n = 1)
[3] = Hep-G2 cells, RSV A2, 2 days, read-out: RSV A2 Plaque EC50

Structure (SMILES)	EC50 ([1]; read-out: RSV A2 Plaque EC50, Hep-G2 cells, RSV A2, 2 days)	CC50 [2]	EC50 [1, 3]
CC(O)c1ccc(-c2nn3cccnc3c2C(=O)N[C@H]2N=C(c3ccccc3)c3ccccc3NC2=O)c(F)c1 (single isomer, unassigned) [Example 16-1, 2-[2-Fluoro-4-[(1S*)-1-hydroxyethyl]phenyl]-N-[(3S)-2-oxo-5-phenyl-1,3-dihydro-1,4-benzodiazepin-3-yl]pyrazolo[1,5-a]pyrimidine-3-carboxamide]	8.2 nM	> 2500 nM	
CC(O)c1ccc(-c2nn3cccnc3c2C(=O)N[C@H]2N=C(c3ccccc3)c3cccc(F)c3NC2=O)c(F)c1 (single isomer, unassigned) [Example 17-1, 2-[2-Fluoro-4-[(1S*)-1-hydroxyethyl]phenyl]-N-[(3S)-9-fluoro-2-oxo-5-phenyl-1,3-dihydro-1,4-benzodiazepin-3-yl]pyrazolo[1,5-a]pyrimidine-3-carboxamide]		> 2500 nM	5.5 nM
CC(C)n1cc(-c2nn3cccnc3c2C(=O)N[C@H]2N=C(c3ccccc3)c3ccccc3NC2=O)cn1 [Example 5, N-[(3S)-2-oxo-5-phenyl-1,3-dihydro-1,4-benzodiazepin-3-yl]-2-(1-propan-2-ylpyrazol-4-yl)pyrazolo[1,5-a]pyrimidine-3-carboxamide]		> 25000 nM	66 nM
CS(=O)(=O)c1ccc(-c2nn3cccnc3c2C(=O)N[C@H]2N=C(c3ccccc3)c3ccccc3NC2=O)c(F)c1 [Example 8, 2-(2-Fluoro-4-methylsulfonylphenyl)-N-[(3S)-2-oxo-5-phenyl-1,3-dihydro-1,4-benzodiazepin-3-yl]pyrazolo[1,5-a]pyrimidine-3-carboxamide]		> 25000 nM	13 nM
O=C(N[C@H]1N=C(c2ccccc2)c2ccccc2NC1=O)c1c(-c2cc(CO)ccc2F)nn2cccnc12 [Example 9, 2-[2-Fluoro-5-(hydroxymethyl)phenyl]-N-[(3S)-2-oxo-5-phenyl-1,3-dihydro-1,4-benzodiazepin-3-yl]pyrazolo[1,5-a]pyrimidine-3-carboxamide]		> 25000 nM	60 nM
O=C(N[C@H]1N=C(c2ccccc2)c2cccc(F)c2NC1=O)c1c(-c2cc(CO)ccc2F)nn2cccnc12 [Example 10, 2-[2-Fluoro-5-(hydroxymethyl)phenyl]-N-[(3S)-9-fluoro-2-oxo-5-phenyl-1,3-dihydro-1,4-benzodiazepin-3-yl]pyrazolo[1,5-a]pyrimidine-3-carboxamide]		> 20200 nM	25 nM
O=C(N[C@H]1N=C(c2ccccc2)c2ccccc2NC1=O)c1c(-c2ccc(O)cc2F)nn2cccnc12 [Example 11, 2-(2-Fluoro-4-hydroxyphenyl)-N-[(3S)-2-oxo-5-phenyl-1,3-dihydro-1,4-benzodiazepin-3-yl]pyrazolo[1,5-a]pyrimidine-3-carboxamide]		> 25000 nM	47 nM
O=C(N[C@H]1N=C(c2ccccc2)c2cccc(F)c2NC1=O)c1c(-c2ccc(O)cc2F)nn2cccnc12 [Example 12, 2-(2-Fluoro-4-hydroxyphenyl)-N-[(3S)-9-fluoro-2-oxo-5-phenyl-1,3-dihydro-1,4-benzodiazepin-3-yl]pyrazolo[1,5-a]pyrimidine-3-carboxamide]		> 25000 nM	16 nM
CC(C)(O)Cc1ccc(-c2nn3cccnc3c2C(=O)N[C@H]2N=C(c3ccccc3)c3cccc(F)c3NC2=O)c(F)c1 [Example 14, 2-[2-Fluoro-4-(2-hydroxy-2-methylpropyl)phenyl]-N-[(3S)-9-fluoro-2-oxo-5-phenyl-1,3-dihydro-1,4-benzodiazepin-3-yl]pyrazolo[1,5-a]pyrimidine-3-carboxamide]		> 25000 nM	20 nM
CC(C)(O)Cc1ccc(-c2nn3cccnc3c2C(=O)N[C@H]2N=C(c3ccccc3)c3ccccc3NC2=O)c(F)c1 [Example 15, 2-[2-Fluoro-4-(2-hydroxy-2-methylpropyl)phenyl]-N-[(3S)-2-oxo-5-phenyl-1,3-dihydro-1,4-benzodiazepin-3-yl]pyrazolo[1,5-a]pyrimidine-3-carboxamide]		> 25000 nM	32 nM
CC(O)c1ccc(-c2nn3cccnc3c2C(=O)N[C@H]2N=C(c3ccccc3)c3ccccc3NC2=O)c(F)c1 (stereo partly drawn) [Example 16, 2-[2-Fluoro-4-(1-hydroxyethyl)phenyl]-N-[(3S)-2-oxo-5-phenyl-1,3-dihydro-1,4-benzodiazepin-3-yl]pyrazolo[1,5-a]pyrimidine-3-carboxamide]		> 25000 nM	7.6 nM
CC(O)c1ccc(-c2nn3cccnc3c2C(=O)N[C@H]2N=C(c3ccccc3)c3cccc(F)c3NC2=O)c(F)c1 (stereo partly drawn) [Example 17, 2-[2-Fluoro-4-(1-hydroxyethyl)phenyl]-N-[(3S)-9-fluoro-2-oxo-5-phenyl-1,3-dihydro-1,4-benzodiazepin-3-yl]pyrazolo[1,5-a]pyrimidine-3-carboxamide]		> 25000 nM	6.9 nM
CC(C)(O)c1ccc(-c2nn3cccnc3c2C(=O)N[C@H]2N=C(c3ccccc3)c3ccccc3NC2=O)c(F)c1 [Example 20, 2-[2-Fluoro-4-(2-hydroxypropan-2-yl)phenyl]-N-[(3S)-2-oxo-5-phenyl-1,3-dihydro-1,4-benzodiazepin-3-yl]pyrazolo[1,5-a]pyrimidine-3-carboxamide]		> 25000 nM	8.7 nM
O=C(N[C@H]1N=C(c2ccccc2)c2ccccc2NC1=O)c1c(-c2ccc(CCO)cc2F)nn2cccnc12 [Example 21, 2-[2-Fluoro-4-(2-hydroxyethyl)phenyl]-N-[(3S)-2-oxo-5-phenyl-1,3-dihydro-1,4-benzodiazepin-3-yl]pyrazolo[1,5-a]pyrimidine-3-carboxamide]		> 25000 nM	42 nM
O=C(N[C@H]1N=C(c2ccccc2)c2cccc(F)c2NC1=O)c1c(-c2ccc(CCO)cc2F)nn2cccnc12 [Example 22, 2-[2-Fluoro-4-(2-hydroxyethyl)phenyl]-N-[(3S)-9-fluoro-2-oxo-5-phenyl-1,3-dihydro-1,4-benzodiazepin-3-yl]pyrazolo[1,5-a]pyrimidine-3-carboxamide]		> 25000 nM	25 nM
CCS(=O)(=O)c1ccc(-c2nn3cccnc3c2C(=O)N[C@H]2N=C(c3ccccc3)c3cccc(F)c3NC2=O)c(F)c1 [Example 23, 2-(4-Ethylsulfonyl-2-fluorophenyl)-N-[(3S)-9-fluoro-2-oxo-5-phenyl-1,3-dihydro-1,4-benzodiazepin-3-yl]pyrazolo[1,5-a]pyrimidine-3-carboxamide]		> 25000 nM	3 nM
NS(=O)(=O)c1ccc(-c2nn3cccnc3c2C(=O)N[C@H]2N=C(c3ccccc3)c3cccc(F)c3NC2=O)c(F)c1 [Example 24, N-[(3S)-9-Fluoro-2-oxo-5-phenyl-1,3-dihydro-1,4-benzodiazepin-3-yl]-2-(2-fluoro-4-sulfamoylphenyl)pyrazolo[1,5-a]pyrimidine-3-carboxamide]		> 25000 nM	49 nM
CN(C)S(=O)(=O)c1ccc(-c2nn3cccnc3c2C(=O)N[C@H]2N=C(c3ccccc3)c3cccc(F)c3NC2=O)c(F)c1 [Example 25, 2-[4-(Dimethylsulfamoyl)-2-fluorophenyl]-N-[(3S)-9-fluoro-2-oxo-5-phenyl-1,3-dihydro-1,4-benzodiazepin-3-yl]pyrazolo[1,5-a]pyrimidine-3-carboxamide]		> 25000 nM	1.2 nM
CS(=O)(=O)c1ccc(F)c(-c2nn3cccnc3c2C(=O)N[C@H]2N=C(c3ccccc3)c3cccc(F)c3NC2=O)c1 [Example 26, 2-(2-Fluoro-5-methylsulfonylphenyl)-N-[(3S)-9-fluoro-2-oxo-5-phenyl-1,3-dihydro-1,4-benzodiazepin-3-yl]pyrazolo[1,5-a]pyrimidine-3-carboxamide]		> 25000 nM	61 nM
NC(=O)c1ccc(-c2nn3cccnc3c2C(=O)N[C@H]2N=C(c3ccccc3)c3cccc(F)c3NC2=O)c(F)c1 [Example 27, 2-(4-Carbamoyl-2-fluorophenyl)-N-[(3S)-9-fluoro-2-oxo-5-phenyl-1,3-dihydro-1,4-benzodiazepin-3-yl]pyrazolo[1,5-a]pyrimidine-3-carboxamide]		> 25000 nM	49 nM
CC(C)[C@H](N)C(=O)OCc1ccc(-c2nn3cccnc3c2C(=O)N[C@H]2N=C(c3ccccc3)c3ccccc3NC2=O)c(F)c1 [Example 30, [3-Fluoro-4-(3-{[(3S)-2-oxo-5-phenyl-1,3-dihydro-1,4-benzodiazepin-3-yl]carbamoyl}pyrazolo[1,5-a]pyrimidin-2-yl)phenyl]methyl (2S)-2-amino-3-methylbutanoate hydrochloride]		> 25000 nM	44 nM
